US6900193B1, “Structural modification of 19-norprogesterone I: 17-α-substituted-11-β-substituted-4-aryl and 21-substituted 19-norpregnadienedione as new antiprogestational agents” (The United States of America as represented by the …, priority 1996, dated 2005)
Entries after “also recorded” stand apart in the source; their conditions may differ.

Columns and labels:
[1] = biological target: T1, progesterone receptor (estrogen-primed rabbit uterus) (Oryctolagus cuniculus, UniProt P06186); test: Relative binding affinity, progesterone receptor; conditions: for binding affinities compared with the standard, compound 69B: progesterone receptor implied (rabbit or human isoform A not specified)
T1 construct: preparation of cytosols for the progesterone and glucocorticoid receptor assays; from tissue; host or cells: uterus of estradiol-primed immature female New Zealand White rabbits (cytosol)
T1 sequence (P06186 1-930): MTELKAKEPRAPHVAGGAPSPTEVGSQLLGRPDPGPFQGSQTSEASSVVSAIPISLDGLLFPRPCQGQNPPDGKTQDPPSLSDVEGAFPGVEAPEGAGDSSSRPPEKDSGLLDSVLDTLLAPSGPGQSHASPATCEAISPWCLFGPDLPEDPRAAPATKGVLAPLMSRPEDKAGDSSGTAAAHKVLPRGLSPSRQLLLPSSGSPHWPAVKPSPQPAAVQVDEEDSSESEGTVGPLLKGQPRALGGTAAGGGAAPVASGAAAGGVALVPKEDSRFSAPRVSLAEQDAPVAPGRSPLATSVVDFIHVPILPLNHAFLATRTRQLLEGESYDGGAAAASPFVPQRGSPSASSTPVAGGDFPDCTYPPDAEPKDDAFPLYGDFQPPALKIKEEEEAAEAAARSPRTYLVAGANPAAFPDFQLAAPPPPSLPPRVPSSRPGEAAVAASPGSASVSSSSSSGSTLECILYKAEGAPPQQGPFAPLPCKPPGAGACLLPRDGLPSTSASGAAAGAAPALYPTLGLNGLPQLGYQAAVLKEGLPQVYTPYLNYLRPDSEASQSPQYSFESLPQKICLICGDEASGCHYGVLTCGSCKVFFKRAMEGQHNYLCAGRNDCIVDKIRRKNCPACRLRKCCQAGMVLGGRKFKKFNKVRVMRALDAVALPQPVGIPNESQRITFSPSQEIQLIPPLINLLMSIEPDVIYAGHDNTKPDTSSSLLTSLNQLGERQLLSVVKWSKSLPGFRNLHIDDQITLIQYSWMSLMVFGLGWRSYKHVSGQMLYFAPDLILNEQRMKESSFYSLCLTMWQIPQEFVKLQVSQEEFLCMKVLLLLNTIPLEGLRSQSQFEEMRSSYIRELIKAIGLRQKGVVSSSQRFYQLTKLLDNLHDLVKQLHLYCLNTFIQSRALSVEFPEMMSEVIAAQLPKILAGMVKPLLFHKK
Procedure: (§1) Relative Binding Affinities for the Progesterone and Glucocorticoid Receptors
(§2) Uteri and thymus glands were obtained from estradiol-primed immature female rabbits of the New Zealand White strain for preparation of cytosols for the progesterone and glucocorticoid receptor assays, respectively. Tissues were excised and immediately placed in ice cold TEGDM buffer (10 mM Tris, pH 7.4; 1.5 mM EDTA; 10% glycerol vol/vol/; 1 mM dithiothreitol [DTT]; and 20 mM sodium molybdate). The tissues were dissected free of connective tissue and fat, weighed and minced finely. Minced tissues were homogenized in 3 volumes TEGDM/gm with four 10 second bursts of a VirTis Cyclone set at half maximum speed with a 30 second cooling period (in ice) between bursts. Homogenates were centrifuged at 109,663 g at 4° C. for 1 hour to yield the soluble cytosol fiction. Aliquots of cytosol were snap frozen and stored at −75° C.
(§3) All binding assays were carried out at 2-6° C. for 16-18 hours. The following radioactive ligands were used: [1,2-^3H(N)]-progesterone (50.0 Ci/mmole) for the progesterone receptor (PR). […] For the progesterone receptor RBA assays 0.02 ml uterine cytosol or TEDGM buffer, 0.05 ml of various concentrations of test compounds or progesterone, 0.13 ml TEGDM buffer and 0.05 ml [^3H]-progesterone were added to duplicate tubes. For the glucocorticoid receptor RBA assays 0.1 ml thymus cytosol or TEDGM buffer, 0.05 ml of various concentrations of test compounds or dexamethasone, 0.05 ml TEGDM buffer and 0.05 ml [3H]-dexamethasone were added to duplicate tubes. For the estrogen receptor RBA assays 0.05 ml uterine cytosol, 0.1 ml TEGDM buffer, 0.05 ml of various concentrations of test compounds or estradiol and 0.05 ml [^3H]-estradiol were added to duplicate tubes. The concentrations of the test compounds, progesterone, dexamethasone and estradiol ranged from 0.05 to 100 nM and the concentrations of the competitors ranged from 0.5 to 500 nM. Total binding was measured at radioligand concentrations of 3.5 nM and nonspecific binding was measured in the presence of a 200-fold excess of unlabeled progesterone (PR), dexamethasone (GR) or diethylstilbestrol (ER), respectively.
(§4) In all incubations bound and free ligand were separated using dextra-coated charcoal (DCC). A 0.1 ml aliquot of DCC (0.5% charcoal/0.05% Dextran T-70) was added to each tube. The tubes were vortexed and incubated on ice for 10 minutes. Five-tenths ml TEG buffer (without DTT or molybdate) was then added to all tubes to improve supernatant recovery following centrifugation. The charcoal was pelleted by centrifugation at 2,100 g for 15 minutes at 4° C. The supernatants containing the [^3H]-steroid receptor complexes were decanted into vials containing 4 ml Optifluor (Packard Instrument Co.), vortexed, equilibrated in a liquid scintillation counter for 30 minutes and then counted for 2 minutes. This provided the quantity of receptor bound [^3H]-steroid at each competitor concentration.

[2] = biological target: T2, glucocorticoid receptor (estrogen-primed rabbit thymus) (Oryctolagus cuniculus, UniProt P59667); test: Relative binding affinity, glucocorticoid receptor
T2 construct: preparation of cytosols for the progesterone and glucocorticoid receptor assays; from tissue; host or cells: thymus of estradiol-primed immature female New Zealand White rabbits (cytosol)
T2 sequence (P59667 1-772): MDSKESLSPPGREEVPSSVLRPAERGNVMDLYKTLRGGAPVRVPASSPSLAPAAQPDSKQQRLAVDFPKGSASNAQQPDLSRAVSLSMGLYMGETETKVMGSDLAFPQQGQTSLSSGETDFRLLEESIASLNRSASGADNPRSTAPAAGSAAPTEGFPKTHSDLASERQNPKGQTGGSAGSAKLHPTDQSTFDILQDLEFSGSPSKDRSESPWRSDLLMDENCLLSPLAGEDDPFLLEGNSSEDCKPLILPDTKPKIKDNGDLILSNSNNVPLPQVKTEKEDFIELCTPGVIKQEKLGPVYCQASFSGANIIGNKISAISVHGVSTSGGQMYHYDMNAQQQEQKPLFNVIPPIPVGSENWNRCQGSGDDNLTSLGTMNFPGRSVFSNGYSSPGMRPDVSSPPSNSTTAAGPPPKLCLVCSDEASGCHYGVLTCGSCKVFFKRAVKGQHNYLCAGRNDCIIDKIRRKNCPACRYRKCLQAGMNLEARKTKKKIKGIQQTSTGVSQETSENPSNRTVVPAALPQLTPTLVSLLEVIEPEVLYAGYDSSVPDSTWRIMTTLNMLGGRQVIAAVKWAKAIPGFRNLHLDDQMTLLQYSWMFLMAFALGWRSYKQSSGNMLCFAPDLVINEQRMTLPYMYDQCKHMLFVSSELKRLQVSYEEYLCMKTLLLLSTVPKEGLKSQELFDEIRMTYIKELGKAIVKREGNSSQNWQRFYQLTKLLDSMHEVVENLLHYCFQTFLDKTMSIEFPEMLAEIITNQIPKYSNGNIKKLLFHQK
Procedure: as §1, §2, §3, §4

[3] = tested on: progesterone-induced endometrial proliferation; test: AntiMcGinty test; type: in vivo, rabbit; conditions: for ANTIPROGESTATIONAL Anti-McGinty: relative potency, CDB-2914 = 100 (assigned), intraluminal, rabbit
Procedure: AntiMcGinty Test (McGinty, et al., Endocrinology, 24:829-832 (1939))
Immature female rabbits of the New Zealand White breed (approx. 1 kg body weight) were maintained under standard laboratory conditions and received a subcutaneous injection of 5 μg estradiol in 10% ethanol/sesame oil daily for 6 consecutive days. Twenty-four hours after the last injection of estradiol (day 7) animals underwent sterile abdominal surgery to ligate a 3-4 cm segment of both uterine horns. The experimental compound in appropriate solvent (usually 10% ethanol/sesame oil) was injected intraluminally into the ligated segment of one uterine horn and the vehicle alone into the ligated segment of the contralateral horn. Injection volume was limited to 0.1 ml, and care was taken to prevent leakage. A stimulating dose of progesterone (0.8 mg/day) was administered subcutaneously to each rabbit daily for the next three days (days 7, 8 and 9) for the purpose of inducing endometrial proliferation. All animals were sacrificed on day 10 when a segment central to the ligatures was removed and fixed in 10% neutral buffered formalin and submitted for histological processing. Five micron sections stained with hematoxylin and eosin (H&E) were evaluated microscopically for the degree of endometrial glandular proliferation according to the method of McPhail (McPhail, J. Physiol., 83:145 (1934). The percent inhibition of endometrial proliferation for each rabbit was calculated and the mean of the group of five animals recorded.

[4] = tested on: progesterone-induced endometrial proliferation; test: AntiClauberg test; type: in vivo, rabbit; design: key to ANTIPROGESTATIONAL Anti-Clauberg: relative oral potency vs. reference compound set to 100; conditions: oral
Procedure: AntiClauberg Test (Clauberg, C., Zentr. Gynakol., 54:2757-2770 (1930)) Immature female rabbits of the New Zealand White breed (approx. 1 kg body weight) were maintained under standard laboratory conditions and received a subcutaneous injection of 5 μg estradiol in 10% ethanol/sesame oil daily for 6 consecutive days. Twenty-four hours after the last dose of estradiol (day 7) animals received progesterone by subcutaneous injection (0.8 mg/day) and the experimental compound in appropriate vehicle (usually 10% ethanol/sesame oil) orally or subcutaneously for five consecutive days. One group of rabbits received progesterone only. Twenty-four hours after the last dose all animals were sacrificed for removal of the uterus which was cleaned of all fat and connective tissue, weighed to the nearest 0.2 mg and placed in 10% neutral buffered formalin for subsequent histological processing. Five micron sections stained with hematoxylin and eosin (H&E) were evaluated microscopically for the degree of endometrial glandular proliferation according to the method of McPhail (McPhail, supra). The percent inhibition of endometrial proliferation at each dose level of the experimental compound was derived by comparison with the progesterone-stimulated animals alone.

[5] = estrogen-primed rabbit uterus, progesterone = 100%
[6] = estrogen-primed rabbit thymus, dexamethasone = 100%

| SMILES | RELATIVE BINDING AFFINITY Progesterone [1, 5] [%] | RELATIVE BINDING AFFINITY Glucocorticoid [2, 6] [%] | ANTIPROGESTATIONAL Anti-McGinty [3] | binding affinities compared with the standard, compound 69B [1] | other results |
| --- | --- | --- | --- | --- | --- |
| CC(=O)O[C@]1(C(=O)CSC(C)=O)CC[C@H]2[C@@H]3CCC4=CC(=O)CCC4=C3[C@@H](c3ccc(N(C)C)cc3)C[C@@]21C [Compound 17, 17α-acetoxy-21-acetylthio-11β-[4-(N,N-dimethylamino)phenyl]-19-norpregna-4,9-diene-3,20-dione] | 37 | 54 | 65 |  |  |
| CCC(=O)[C@@]1(OC(C)=O)CCC2C3CCC4=CC(=O)CCC4=C3C(c3ccc(N(C)C)cc3)C[C@@]21C (stereo partly drawn) [Compound 28, 17α-acetoxy-21-methyl-11β-[4-(N,N-dimethylamino)phenyl]-19-norpregna-4,9-diene-3,20-dione] | 129 | 126 | 32 | binding affinities greater than that observed for the standard |  |
| CC(=O)O[C@]1(C(=O)CBr)CCC2C3CCC4=CC(=O)CCC4=C3C(c3ccc(N(C)C)cc3)C[C@@]21C (stereo partly drawn) [Compound 14B, 17α-acetoxy-21-bromo-11β-[4-(N,N-dimethylamino)phenyl]-19-norpregna-4,9-diene-3,20-dione] | 130 | 175 | 71 | binding affinities greater than that observed for the standard | binding affinity for the progesterone receptor, in words ([1]; rabbit uterine, versus CDB-2914 (69B) where stated): did not show significant differences; antiprogestational activity compared with the lead compound / standard, in words ([3]; antiMcGinty (and antiClauberg), versus CDB-2914 (69B)): did not show significant differences |
| CC(=O)SCC(=O)C1(O)CCC2C3CCC4=CC(=O)CCC4=C3C(c3ccc(N(C)C)cc3)CC21C (centres unmarked) [Compound 16] | 6 | 77 | >2 |  |  |
| COCC(=O)[C@@]1(OC(C)=O)CC[C@H]2[C@@H]3CCC4=CC(=O)CCC4=C3[C@@H](c3ccc(N(C)C)cc3)C[C@@]21C [Compound 38, 17α-acetoxy-21-methoxy-11β-(4-N,N-dimethylaminophenyl)-19-norpregna-4,9-diene-3,20-dione] | 103 | 52 |  | binding affinities greater than that observed for the standard | ANTIPROGESTATIONAL Anti-Clauberg ([4]; relative potency, CDB-2914 = 100 (assigned)): 361; antiprogestational potency compared to the lead compound (CDB-2914), oral antiClauberg test ([4]; versus CDB-2914): 3.61 times; antiClauberg / oral antiprogestational activity, in words ([4]; versus the standard 69B): greater activity than the standard; binding affinity for the glucocorticoid receptor, in words ([2]; rabbit thymus, versus CDB-2914 (69B) where stated): substantial reduction in glucocorticoid binding affinity; also recorded: low binding affinity |
| CN(C)c1ccc([C@H]2C[C@@]3(C)[C@@H](CC[C@]3(OC=O)C(=O)COC=O)[C@@H]3CCC4=CC(=O)CCC4=C32)cc1 [Compound 139, 17α,21-Diformyloxy-11β-[4-(N,N-dimethylamino)phenyl]-19-norpregna-4,9-diene-3,20-dione] |  |  |  |  | BIOLOGICAL ACTIVITY antiClauberg ([4]; Table 2, CDB-2914 = 100 (assigned)): inactive; BINDING AFFINITY Progester ([1]; Table 2, estrogen-primed rabbit uterus, progesterone = 100%): 30%; BINDING AFFINITY Glucocortic ([2]; Table 2, estrogen-primed rabbit thymus, dexamethasone = 100%): 79% |
